Test results published in article PMC3976407, “Inhibition of Fatty Acid Binding Proteins Elevates Brain Anandamide Levels and Produces Analgesia” (PLoS ONE, 2014).
Like-named read-outs stand apart in the source and are kept apart here.

How the values were obtained:
[1] = test system: carrageenan-induced thermal hyperalgesia and paw edema in mice; test: Carrageenan-induced paw edema and thermal hyperalgesia; assay type: in vivo, mouse; details: 20 mg/kg, i.p.
Description: Paw edema was induced by injecting 1% λ-carrageenan (20 μl, in sterile saline) into the plantar surface of the left hind paw using a 30 gauge needle attached to a glass syringe (Hamilton Company). Paw diameters were measured before carrageenan injection and 4 or 24 hours after injection using digital electronic calipers (Fisher) and expressed to the nearest ± 0.01 mm. SBFI26, SBFI50, SBFI60, and SBFI62 were dissolved in DMSO:cremophor-EL:saline (4% DMSO:10% Cremophor-EL) and administered (20 mg/kg, i.p.) 60 min prior to injection of carrageenan. Receptor antagonists were injected 10 min before the inhibitors. Rimonabant and SR144528 (3 mg/kg, i.p.) were dissolved in ethanol:cremophor-EL:saline (1∶1∶18) while GW6471 (4 mg/kg, i.p.) was dissolved in DMSO:cremophor-EL:saline (2% DMSO:5% Cremophor-EL). Edema is reported as the change in paw diameter at 24 hr compared to the baseline. Thermal hyperalgesia was measured using the Hargreaves plantar apparatus (Ugo Basile) as previously reported.

[2] = Pharmacokinetics: SBFI26 levels in plasma and brain; assay type: in vivo; details: mouse, 20 mg/kg, i.p.; for half-life: ip
Description: Mice were injected with SBFI26 (20 mg/kg, i.p.) and were subsequently rapidly euthanized by decapitation at the indicated time points. The brain was rapidly removed and submerged in liquid nitrogen while the blood was collected into a K2-EDTA collection tube (Fisher). Plasma was isolated by centrifugation of the blood and 50 μl of the plasma was combined with 150 μl acetonitrile and centrifuged to remove the resulting protein pellet. Subsequently, 50 μl of water was added to 50 μl of the supernatant and 10 μl was injected for analysis into a Thermo TSQ Quantum Access Triple Quadrupole mass spectrometer (ThermoFisher). LC separation was achieved on a Luna C18 (150×2 mm) column. Mobile phase A consisted of 100% H20 while mobile phase B was composed of 100% acetonitrile. The flow rate was 200 μl/min. A linear gradient was used and started at 50% B for 2 min, then ramped to 100% B in 8 min., with a 2 min hold at 100% B. The system was then equilibrated at 50% B for a cycle time of 20 min. The mass spectrometer was operated in the negative ion mode with the high voltage set at −3.5 kV. The sheath pressure was 20 and the capillary was set to 270 °C. Multiple reaction monitoring (MRM) was used with the transition m/z 421 to 277 at 29 eV as the quantitation channel, while m/z 421 to 205 at 17 eV was employed as a conformation channel. SBFI26 quantification was performed using an external calibration curve.

[3] = test system: brain endocannabinoid levels; test: Lipid quantification of brain NAEs and 2-AG; assay type: in vivo; details: mouse, 20 mg/kg, i.p.
Description: Quantification of endogenous NAEs and 2-AG were performed as previously described with minor modifications. Mice were rapidly euthanized by decapitation and their brains flash frozen in liquid nitrogen. The brains were subsequently thawed, weighed, and homogenized in 8 ml of 2∶1∶1 CHCl3:MeOH:Tris (50 mM, pH 8) in the presence of 4 ng d4-PEA, 4 ng d2-OEA, 400 pg d4-AEA, and 40 ng d5-2-AG. Following centrifugation at 4°C, the organic layer was removed and brought up to 8 ml with the same buffer and centrifuged again. The resulting organic layer was dried down with argon and resuspended with 100 μl of 2∶1 CHCl3:MeOH and 10 μl was injected into the Thermo TSQ Quantum Access Triple Quadropole mass spectrometer. LC separation was achieved on a Gemini C18 (50×2 mm×5 μm) equipped with a Gemini C18 SecurityGuard precolumn (4 mm length ×2 mm internal diameter). Mobile phase A consisted of 95∶5% v:v H20:MeOH while mobile phase B was composed of 60∶35∶5 v:v:v i-PrOH:MeOH:H2O and quantification was performed in the positive ion mode with the voltage set at 4 kV. 0.1% formic acid was added to assist in ionization. The sheath pressure was 30 and the capillary was set at 270 °C. The flow rate was 100 μl/min. The gradient started at 0% B and increased to 100% B over 15 min followed by an isocratic gradient of 100% B for 10 min, and was equilibrated for 15 min at 0% B.

FAAH = target: T1, FAAH (Mus musculus, UniProt O08914); test: AEA hydrolysis by brain and liver homogenates after injection of inhibitor; assay type: biochemical; details: mouse brain and liver homogenates harvested 60 min after 20 mg/kg, i.p.; 30 μM [14C]AEA
T1 construct: from tissue; host or cells: mouse brain and liver homogenates
T1 sequence (O08914 1-579): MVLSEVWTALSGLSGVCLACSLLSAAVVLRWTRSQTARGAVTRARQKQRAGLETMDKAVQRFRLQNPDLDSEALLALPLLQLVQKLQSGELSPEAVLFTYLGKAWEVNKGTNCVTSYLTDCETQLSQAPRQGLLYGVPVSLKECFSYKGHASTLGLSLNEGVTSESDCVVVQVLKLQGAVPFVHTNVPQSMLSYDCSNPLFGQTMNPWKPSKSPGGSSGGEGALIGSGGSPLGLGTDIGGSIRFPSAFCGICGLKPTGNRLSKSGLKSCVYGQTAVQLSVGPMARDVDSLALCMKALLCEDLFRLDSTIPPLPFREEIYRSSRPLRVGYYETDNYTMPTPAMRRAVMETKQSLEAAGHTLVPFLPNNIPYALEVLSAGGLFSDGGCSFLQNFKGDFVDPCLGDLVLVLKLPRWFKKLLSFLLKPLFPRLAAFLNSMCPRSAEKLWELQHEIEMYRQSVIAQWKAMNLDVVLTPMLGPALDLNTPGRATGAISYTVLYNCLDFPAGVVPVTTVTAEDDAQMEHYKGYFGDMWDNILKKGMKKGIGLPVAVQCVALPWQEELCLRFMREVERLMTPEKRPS
Description: AEA and 2-OG hydrolysis was determined using modified protocols to those described previously, [35]. Mice were injected with inhibitors (20 mg/kg, i.p.) and the brains and livers were harvested 60 min later. The tissue homogenates were subsequently incubated with 30 μM [^14C]AEA or 10 μM [^3H]2-OG for 30 min. Reactions were stopped with two volumes of chloroform:methanol (1∶1) and the methanol phase was counted using a Beckman LS6500 scintillation counter.

[4] = test system: locomotor activity in mice; test: Locomotor activity; assay type: in vivo, mouse; details: 20 mg/kg, i.p., measured 90 min after administration
Description: […] Locomotor activity was recorded for 5 min by a video camera suspended above the chamber and subsequently scored by an observer blinded to the treatment conditions. A grid crossing was scored when both hind legs of the animal crossed the border of each grid square.

half-life ([2]; brain, read-out: Brain half-life (converted)): ~3 h
Brain levels relative to plasma levels [2]: lower
Time of peak brain level ([2]; brain): within one hour
Time of peak plasma level ([2]; plasma): within one hour
Time by which levels return to baseline ([2]; plasma and brain): ≤ 24 h
half-life ([2]; plasma, read-out: Plasma half-life (converted)): ~3 h
Inhibition of AEA hydrolysis (FAAH): did not inhibit
Locomotor activity [4]: does not alter
SMILES: O=C(O)C1C(c2ccccc2)C(C(=O)Oc2cccc3ccccc23)C1c1ccccc1 (stereo not drawn) [SBFI26, alpha-2,4-diphenylcyclobutane-1,3-dicarboxylic acid mono-1-naphthyl ester]
Effect upon carrageenan-induced paw edema [1]: reduced
Effect upon carrageenan-induced thermal hyperalgesia [1]: reduced
Brain 2-AG levels ([3]; 90 min): unaffected
Brain OEA levels ([3]; 90 min): unaffected
Brain PEA levels ([3]; 90 min): unaffected
Brain AEA levels ([3]; tissues harvested 90 min after administration): significantly elevated
